Counter-ions that a name gives are not always drawn. Like-named read-outs stand apart in the source and are kept apart here.
Assays:
[1] = target: muscarinic receptors; test: Radio ligand binding, displacement of muscarinic agonist 3H-Oxotremorine-M (3H-OXO-M); parameters: species or system rat (Hooded Lister); conditions: displacement of 2 nM 3H-OXO-M, rat cerebral cortex homogenate, 37° C., 30 min, 2 mM magnesium chloride
[2] = target: muscarinic receptors; format: binding, rat (Hooded Lister); conditions: displacement of 0.27 nM 3H-QNB, rat cerebral cortex homogenate, 37° C., 30 min

SMILES	IC50 [1] [nM]	IC50 [2] [nM]
C#CCON=CC1CN2CCC1CC2 (racemic) [E 17, (±)1-Azabicyclo[2.2.21oct-3-ylcarboxaldehyde, O-proparqyloxime hydrochloride salt]	190	2450
CON=C(C)C1CC2CCN(C2)C1 (racemic) [E 24, (±)exo-3-Acetyl-1-azabicyclo[3.2.1]octane-trans-O-methyloxime hydrochloride salt]	320	7300
CON=C(C)C12CCCN(CC1)C2 (racemic) [E 6, (±) trans-5-Acetyl-1-azabicyclo[3.2.1]octane-O-methyloxime hydrochloride salt]	46	4400
CON=C[C@@H]1CN2CC[C@@H]1C2 (relative stereo) [E 7, (±) exo-1-Azabicyclo[2.2.1]hept-3-ylcarboxaldehyde, O-methyloxime oxalate salt]	14	4800
CON=C(C)C1CN2CCC1CC2 (mixture of isomers) [E 3, (±) trans-3-Acetyl-1-azabicyclo[2.2.21octane-O-methyloxime hydrochloride salt]	69	2000
CCC(=NOC)C1CN2CCC1C2 (mixture of isomers) [E 16, (±)exo-3-Propan-1-one-1-azabicyclo2.2.11heptane-trans-O-methyloxime hydrochloride salt]	204	3400
C#CCON=C(C)C1CN2CCC1C2 (mixture of isomers) [E 15, (±)exo-3-Acetyl-1-azabicyclo2.2.1]heptane-trans-O-proparqyloxime hydrochloride salt]	219	3900
CCON=C[C@@H]1CN2CC[C@@H]1C2 (relative stereo) [E 8, (±) exo-1-Azabicyclo[2.2.1]hept-3-ylcarboxaldehyde, O-ethyloxime oxalate salt]	160	5600
CON=C(C)C1CN2CCC1C2 (racemic) [E 13, (±)exo-3-Acetyl-1-azabicyclo[2.2.1]heptane-trans-O-methyloxime oxalate salt]	99	9000
CON=C[C@H]1C[C@@H]2CCN(C1)C2 (relative stereo) [E 23, (±)exo-1-Azabicyclo[3.2.11oct-3-ylcarboxaldehyde, O-methyloxime hydrochloride salt]	240	5570
C#CCON=C[C@@H]1CN2CC[C@@H]1C2 (relative stereo) [E 9, (±) exo-1-Azabicyclo[2.2.11hept-3-ylcarboxaldehyde, O-proparqyloxime oxalate salt]	24	2700
CON=CC1CN2CCC1CC2 (racemic) [E 2, (±) 1-Azabicyclo[2.2.2]oct-3-ylcarboxaldehyde, O-methyloxime hydrochloride salt]	95	10000
CON=C(C)C12CCN(CC1)C2 [E 20, 4-Acetyl-1-azabicyclo[2.2.1]heptane-O-methyloxime oxalate salt]	55	12500
CON=CC12CCN(CC1)C2 [E 19, syn-1-Azabicyclo[2.2.1]hept-4-ylcarboxaldehyde, O-methyloxime hydrochloride salt]	118	40000
CON=CC12CCCN(CC1)C2 (mixture of isomers) [E 1, (±) syn-1-Azabicyclo[3,2,1]oct-5-ylcarboxaldehyde, O-methyloxime hydrochloride salt]	73	5200
C=CCON=C[C@@H]1CN2CC[C@@H]1C2 (relative stereo) [E 22, (±)exo-1-Azabicyclo2.2.1]hept-3-ylcarboxaldehyde, O-allyloxime oxalate salt]	215	8500
C#CCON=CC12CCN(CC1)C2 [E 21, syn-1-Azabicyclo[2.2.11hect-4-ylcarboxaldehyde, O-proparqyloxime oxalate salt]	352	21000
